Values joined by “and” are separate entries in the source; they are usually repeats but may differ in a detail not shown here. Equal entries are not always repeated. Where two headings read alike, the source gives them in different places.
Columns and labels:
PI3K δ/γ = details: cited from earlier work
[1] = Pharmacokinetic assessments in plasma, phase I/Ib study; type: in vivo, human; details: for Fold increase in Cmax: fasting; for AUC(0-inf) / Cmax / AUC / half-life / Tmax / k el: human, plasma, oral; for AUC: read-out: AUC(0-τ); for Tmax: median; for k el: read-out: λz (converted)
Method: Complete PK assessments were performed during dose escalation on Day 1 of Cycle 1 and 2 and pre-dose at other time points (pre-dose on Day 8 and Day 15 of Cycle 1 and 2, Day 1 and Day 15 of Cycle 3 and 4 and pre-dose on Cycle 5 and beyond). In the dose expansion phase, samples were collected pre-dose on Day 1 from Cycle 1 to Cycle 8. The PK parameters included maximum plasma concentration (Cmax), time to maximum plasma concentration (Tmax), area under the plasma concentration-time curve from time of administration to the end of the dosing interval (AUC(0-τ)), apparent oral drug clearance during a dosing interval (CLss/F), apparent volume of distribution during a dosing interval (Vz/F) and elimination half-life (t1/2) were evaluated.

relapsed/refractory PTCL = assay: Efficacy assessment (ORR, DoR), PTCL patients; type: in vivo, human; details: for Median DoR (95% CI) / ORR (95% CI): PTCL
Method: Efficacy assessments included radiological, bone marrow biopsy/aspiration and skin assessments. In some cases, bone marrow disease alone was used for disease assessment. In these cases, response was reported as CR or non-CR.
In PTCL patients, radiological assessment was performed at screening, Day 1 of Cycle 3 and 5 and approximately 12 weeks thereafter. Assessments of skin lesions in PTCL patients were performed, if applicable. Bone marrow biopsy/aspirate was performed in patients without measurable but assessable disease at screening and on Day 1 of Cycle 3 and 5, then also approximately 12 weeks thereafter to confirm a CR.
The efficacy parameters included ORR and DoR. Revised Response Criteria for Malignant Lymphoma (Cheson 2007) was used for evaluation of PTCL [21]. International Society for Cutaneous Lymphomas Response Criteria for Mycosis Fungoides and Sezary Syndrome (SS) and Cutaneous Lymphoma Task Force of the European Organization for Research and Treatment of Cancer criteria were used for evaluation of CTCL patients. For skin scoring, the modified Severity Weighted Assessment Tool was used. For local index lesion skin scoring, the Composite Assessment of Index Lesion Severity was used.

[2] = between 400 mg and 800 mg BID, Cycle 1 Day 1
[3] = 200 mg, 200 mg BID, C1D1, geometric mean
[4] = 200 mg, 200 mg BID, C2D1, geometric mean
[5] = 400 mg, 400 mg BID, C1D1, geometric mean
[6] = 400 mg, 400 mg BID, C2D1, geometric mean
[7] = 800 mg, 800 mg BID (fed), C1D1, geometric mean
[8] = 800 mg, 800 mg BID (fed), C2D1, geometric mean
[9] = 800 mg, 800 mg BID, C1D1, geometric mean
[10] = 800 mg, 800 mg BID, C2D1, geometric mean
[11] = Dose Escalation 800 mg Fasting, N = 1
[12] = Dose Expansion 800 mg Fasting, N = 10

CC[C@H](Nc1ncnc2[nH]cnc12)c1oc2ccccc2c(=O)c1-c1cccc(F)c1 [Tenalisib]
Inhibitory potency (PI3K δ/γ; PI3K δ/γ): nanomolar | Selectivity over α and β PI3K isoforms (PI3K δ/γ): several fold | λz ([1]; 200 mg BID, C2D1): 0.4 h⁻¹ | λz ([1]; 400 mg BID, C2D1): 0.4 h⁻¹ | λz ([1]; 800 mg BID (fed), C1D1): 0.3 h⁻¹ | λz ([1]; 800 mg BID (fed), C2D1): 0.3 h⁻¹ | Food effect on exposure ([1]; 800 mg BID fasting vs 800 mg BID fed cohort, patients): not significant | λz ([1]; 800 mg BID, C2D1): 0.3 h⁻¹ | Change in Cmax and AUC's, fed vs fasting ([1]; 800 mg fed and fasting cohorts, patients): < 20% | Dose proportionality of Cmax and AUC(0-τ) ([1]; Cycle 1 Day 1): increased proportionally with dose | Tissue distribution (Vz/F) ([1]; all cohorts): not highly distributed in tissues | Fold increase in AUC(0-τ) ([1]; between 200mg and 400 mg BID, Cycle 1 Day 1): 1.8 fold | Fold increase in Cmax ([1]; between 200 mg and 400 mg BID, Cycle 1 Day 1): 1.7 fold | Fold increase in Cmax ([1]; between 200 mg and 400 mg BID, Cycle 2 Day 1): 1.8 fold | Fold increase in AUC(0-τ) [1, 2]: 2.6 fold | Fold increase in Cmax [1, 2]: 1.8 fold | Fold increase in Cmax ([1]; between 400 mg and 800 mg BID, Cycle 2 Day 1): 1.1 fold | Accumulation ([1]; between Cycle 1 Day 1 and Cycle 2 Day 1): no significant accumulation | AUC(0-inf) [1, 3]: 3540 ng·h/mL | Cmax [1, 3]: 1300 ng/mL | AUC [1, 3]: 3500 ng·h/mL | half-life ([1]; 200 mg, 200 mg BID, C1D1, geometric mean, read-out: t1/2 (converted)): 1.6 h | Tmax ([1]; 200 mg, 200 mg BID, C1D1): 1 h | AUC(0-inf) [1, 4]: 4020 ng·h/mL | Cmax [1, 4]: 1650 ng/mL | AUC [1, 4]: 3970 ng·h/mL | half-life ([1]; 200 mg, 200 mg BID, C2D1, geometric mean, read-out: t1/2 (converted)): 1.8 h | Tmax ([1]; 200 mg, 200 mg BID, C2D1): 0.5 h | AUC(0-inf) [1, 5]: 6530 ng·h/mL | Cmax [1, 5]: 2200 ng/mL | AUC [1, 5]: 6420 ng·h/mL | half-life ([1]; 400 mg, 400 mg BID, C1D1, geometric mean, read-out: t1/2 (converted)): 1.9 h | Tmax ([1]; 400 mg, 400 mg BID, C1D1): 0.8 h | AUC(0-inf) [1, 6]: 5600 ng·h/mL | Cmax [1, 6]: 2900 ng/mL | AUC [1, 6]: 5530 ng·h/mL | half-life ([1]; 400 mg, 400 mg BID, C2D1, geometric mean, read-out: t1/2 (converted)): 2 h | Tmax ([1]; 400 mg, 400 mg BID, C2D1): 0.5 h | AUC(0-inf) [1, 7]: 14500 ng·h/mL | Cmax [1, 7]: 2670 ng/mL | AUC [1, 7]: 13600 ng·h/mL | half-life ([1]; 800 mg, 800 mg BID (fed), C1D1, geometric mean, read-out: t1/2 (converted)): 2.6 h | Tmax ([1]; 800 mg, 800 mg BID (fed), C1D1): 2.1 h | AUC(0-inf) [1, 8]: 14200 ng·h/mL | Cmax [1, 8]: 4170 ng/mL | AUC [1, 8]: 13600 ng·h/mL | half-life ([1]; 800 mg, 800 mg BID (fed), C2D1, geometric mean, read-out: t1/2 (converted)): 2.8 h | Tmax ([1]; 800 mg, 800 mg BID (fed), C2D1): 1.1 h | AUC(0-inf) [1, 9]: 17400 ng·h/mL | Cmax [1, 9]: 4000 ng/mL | AUC [1, 9]: 16400 ng·h/mL | half-life ([1]; 800 mg, 800 mg BID, C1D1, geometric mean, read-out: t1/2 (converted)): 2.6 h | Tmax ([1]; 800 mg, 800 mg BID, C1D1): 1.1 h | AUC(0-inf) [1, 10]: 17200 ng·h/mL | Cmax [1, 10]: 3230 ng/mL | AUC [1, 10]: 16200 ng·h/mL | half-life ([1]; 800 mg, 800 mg BID, C2D1, geometric mean, read-out: t1/2 (converted)): 2.6 h | Tmax ([1]; 800 mg, 800 mg BID, C2D1): 2.1 h | half-life ([1]; all cohorts, read-out: Median t1/2 (converted)): 2.28 h | half-life ([1]; all cohorts, read-out: t1/2 range): 1.6 to 2.8 h | k el ([1]; 200 mg BID, C1D1): 0.000111 s⁻¹ | k el ([1]; 400 mg BID, C1D1): 0.000111 s⁻¹ | k el ([1]; 800 mg BID, C1D1): 8.33e-05 s⁻¹ | Partial response (PR) (relapsed/refractory PTCL; PTCL patients): 4 (26.7%) n (%) | Complete response (CR) (relapsed/refractory PTCL; PTCL patients, three patients): 20% | Median DoR (95% CI) (relapsed/refractory PTCL; Cumulative Total, N = 15): 6.5 months and 6.5 (2.9, 14.9) months | ORR (95% CI) (relapsed/refractory PTCL; Cumulative Total, N = 15): 46.7% and 46.7 (21.3, 73.4) % | Median DoR (95% CI) (relapsed/refractory PTCL; Dose Escalation 200 mg, N = 2): 4.9 (-,-) months | ORR (95% CI) (relapsed/refractory PTCL; Dose Escalation 200 mg, N = 2): 50.0 (1.3, 98.7) % | Median DoR (95% CI) (relapsed/refractory PTCL; Dose Escalation 400 mg, N = 1): 0.97 (-,-) months | ORR (95% CI) (relapsed/refractory PTCL; Dose Escalation 400 mg, N = 1): 100.0 (2.5, 100.0) % | Median DoR (95% CI) (relapsed/refractory PTCL; [11]): 19.5 (-,-) months | ORR (95% CI) (relapsed/refractory PTCL; [11]): 100.0 (2.5, 100.0) % | ORR (95% CI) (relapsed/refractory PTCL; Dose Escalation 800 mg Fed, N = 1): 0.0 (0.0, 97.5) % | Median DoR (95% CI) (relapsed/refractory PTCL; Dose Escalation Total, N = 5): 4.9 (0.0, 19.5) months | ORR (95% CI) (relapsed/refractory PTCL; Dose Escalation Total, N = 5): 60.0 (14.7, 94.7) % | Median DoR (95% CI) (relapsed/refractory PTCL; [12]): 7.0 (1.2, 17.3) months | ORR (95% CI) (relapsed/refractory PTCL; [12]): 40.0 (12.2, 73.8) % | Median DoR (relapsed/refractory PTCL; three PTCL patients who achieved CR): 13.3 months
